Assay results: patent publication US10864269B2, “Therapeutic combinations comprising anti-CD73 antibodies and uses thereof” (MedImmune Limited, priority 2014, dated 2020)

Key:
cynomolgus CD73 = test: Solution binding, cynomolgus CD73; conditions: as measured by solution binding
human CD73 ECD = target: T1, human CD73 ECD (Homo sapiens, UniProt P21589); test: Surface plasmon resonance (ProteOn), human CD73; format: binding; conditions: SPR
T1 construct: made in house; host or cells: mammalian cells
T1 sequence (P21589 27-549 limits assumed): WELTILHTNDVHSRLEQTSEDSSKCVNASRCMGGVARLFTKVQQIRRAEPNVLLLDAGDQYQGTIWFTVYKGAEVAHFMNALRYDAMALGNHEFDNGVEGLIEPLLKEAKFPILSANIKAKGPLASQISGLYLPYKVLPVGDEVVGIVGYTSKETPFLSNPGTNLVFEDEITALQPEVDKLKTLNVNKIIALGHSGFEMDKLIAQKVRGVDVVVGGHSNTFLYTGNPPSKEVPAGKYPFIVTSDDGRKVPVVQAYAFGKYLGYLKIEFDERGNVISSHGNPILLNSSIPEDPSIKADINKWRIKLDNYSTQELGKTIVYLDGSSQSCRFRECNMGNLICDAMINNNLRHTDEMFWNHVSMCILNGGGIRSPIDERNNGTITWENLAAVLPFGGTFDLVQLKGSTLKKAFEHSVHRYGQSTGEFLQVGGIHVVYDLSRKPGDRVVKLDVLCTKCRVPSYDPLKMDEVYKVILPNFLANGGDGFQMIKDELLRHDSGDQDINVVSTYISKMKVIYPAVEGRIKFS
Protocol: (§1) A ProteOn XPR36 instrument was used to characterize binding of MEDI9447 to human, murine, and cynomolgus CD73 ECD. MEDI9447 was affinity-captured using an anti-human Fc antibody. CD73 ECD was in the mobile phase. The association and dissociation of CD73 to MEDI9447 could be accurately described with the Langmuir 1:1 model.
(§2) The affinity of enhanced anti-CD73 antibodies (in IgG1-TM format) to human, murine, and cynomolgus CD73 was determined by flow cytometry and surface plasmon resonsance (SPR) (Table 13). The enhanced antibodies had pM affinity to cellular and recombinant CD73 from the three species.

4T1 cells = test: FabZAP antibody internalization assay, 4T1; format: cell-based, murine; conditions: 4T1, 3 days
Protocol: Internalization of MEDI9447 into cell lines MDA-MB-231 (human mammary carcinoma) and 4T1 (murine mammary carcinoma) was assessed using a human Antibody Internalization Kit that is sold commercially as the FabZAP assay (Advanced Targeting Systems, San Diego Calif.). Serial dilutions of MEDI9447 or negative control antibody R347 were pre-incubated with 40 nM FabZAP reagent (Fab fragment of a polyclonal anti-human IgG antibody conjugated to the cytotoxic protein saporin) and then added to the cell lines. After 3 days in culture, cell proliferation was measured using a luminescent cell viability assay sold commercially as the CELLTITER-GLO® assay (Promega, Madison Wis.). This assay was used to calculate EC50 values and maximum toxicity. […]
Cell proliferation of MDA-MB-231 cells and 4T1 cells treated with serial dilutions of test antibody and FabZAP reagent was measured by CELLTITER-GLO® assay (FIG. 2). The signal from the negative control antibody R347 in the CELLTITER-GLO® assay was subtracted from the signal of MEDI9447 and the EC50 value and maximum toxicity were calculated by fitting the dose-response curve using non-linear regression analysis.
1,000 cells/well were cultured in 96 well plates in RPMI/10% FBS. […] After 3 days incubation at 37C, the cell proliferation was measured using the CELLTITER-GLO® assay (Promega, Madison Wis.).

Cynomolgus CD73 ECD = test: Surface plasmon resonance (ProteOn), cynomolgus CD73; format: binding; conditions: SPR
Protocol: as §1, §2

huCD73 = target: T2, huCD73 (Homo sapiens, UniProt P21589); test: Solution binding, human CD73; conditions: as measured by solution binding
T2 sequence (P21589 27-549): T1 sequence (P21589 27-549 limits assumed)

[1] = target: T3, surface-expressed CD73, NCI-H322 cells (Homo sapiens, UniProt P21589); test: Cell-based inhibition of 5′ ectonucleotidase (CD73-catalyzed hydrolysis of AMP); conditions: CD73-expressing NSCLC cells, 200 μM AMP, 24 hours
T3 construct: In a cell-based assay of surface-expressed CD73; endogenous in cells; host or cells: NCI-H322
T3 sequence (P21589 27-549): T1 sequence (P21589 27-549 limits assumed)
Protocol: In this study, the functional activity of MEDI9447 was determined in an in vitro assay that measured the CD73-catalyzed hydrolysis of AMP using a human non-small cell carcinoma cell line, NCI-H322. Formulation of MEDI9447 was prepared by diluting its stock solution in serum-free RPMI medium to a final concentration of 1 μM. Formulation of R347 was prepared by diluting its stock solution in RPMI to a final concentration of 1 μM.
NCI-H322 cells were centrifuged for 5 minutes at 1500 rpm. The supernatant was removed and replaced with serum-free RPMI medium. The cell suspension was counted using the VI-CELL (Beckman, Coulter) cell counter. The cells were plated into 96-well plates at a cell density of 10,000 cells per 100 μLs per well. […], of 4× concentrated AMP (200 μM) was added. […] Cellular enzyme inhibition of 5′ ectonucleotidase was measured on a multilabel reader, the Perkin-Elmer Envision Workstation. The samples were analyzed using Prism Software.
The results depicted in FIG. 3 were obtained using CD73-expressing NSCLC cells that were plated into 96-well non-tissue culture treated plates (Falcon 3788) at 10,000 cells per well in 100 μL of RPMI medium without additives. […] CELLTITER-GLO® reagent (Promega) was added 1:1 and cellular CD73 enzyme AMP phosphorylase activity was determined by measuring ATP levels using the Envision luminescence plate reader (Perkin Elmer). […]

Substance: MEDI9447: IgG1 with CD730010-derived VL of SEQ ID NO: 68 and VH of SEQ ID NO: 82
- Kd (cynomolgus CD73): ~0.09 nM
- kd (human CD73 ECD; Human CD73 ECD): 1.06e-05 s⁻¹
- ka (human CD73 ECD; antibody captured, Human CD73 ECD in mobile phase): 2.57e+06 M⁻¹ s⁻¹
- maximum toxicity (4T1 cells): 97%
- ka (Cynomolgus CD73 ECD): 2.71e+06 M⁻¹ s⁻¹
- kd (Cynomolgus CD73 ECD): 1.76e-05 s⁻¹
- Kd (huCD73): ~0.08 nM
- conversion of adenosine monophosphate to adenosine [1]: reduced in a dose-dependent manner
